Results taken from patent US7772383B2, “Chemical PCR: Compositions for enhancing polynucleotide amplification reactions” (The Trustees of Princeton University, priority 2002, dated 2010).

Legend:
Taq polymerase = molecular target: T1, Taq polymerase (Thermus aquaticus, UniProt P19821); assay: Taq polymerase activity assays at low temperature in the presence of additives; type: biochemical; settings: 1.0M 1,5-pentanediol, 0.7M 1,6-hexanediol; for Activity of Taq polymerase: normalized to activity of control at 62° C.; for Activation: change in Taq activity versus control
T1 construct: purchased Stratagene
T1 sequence (P19821 whole entry): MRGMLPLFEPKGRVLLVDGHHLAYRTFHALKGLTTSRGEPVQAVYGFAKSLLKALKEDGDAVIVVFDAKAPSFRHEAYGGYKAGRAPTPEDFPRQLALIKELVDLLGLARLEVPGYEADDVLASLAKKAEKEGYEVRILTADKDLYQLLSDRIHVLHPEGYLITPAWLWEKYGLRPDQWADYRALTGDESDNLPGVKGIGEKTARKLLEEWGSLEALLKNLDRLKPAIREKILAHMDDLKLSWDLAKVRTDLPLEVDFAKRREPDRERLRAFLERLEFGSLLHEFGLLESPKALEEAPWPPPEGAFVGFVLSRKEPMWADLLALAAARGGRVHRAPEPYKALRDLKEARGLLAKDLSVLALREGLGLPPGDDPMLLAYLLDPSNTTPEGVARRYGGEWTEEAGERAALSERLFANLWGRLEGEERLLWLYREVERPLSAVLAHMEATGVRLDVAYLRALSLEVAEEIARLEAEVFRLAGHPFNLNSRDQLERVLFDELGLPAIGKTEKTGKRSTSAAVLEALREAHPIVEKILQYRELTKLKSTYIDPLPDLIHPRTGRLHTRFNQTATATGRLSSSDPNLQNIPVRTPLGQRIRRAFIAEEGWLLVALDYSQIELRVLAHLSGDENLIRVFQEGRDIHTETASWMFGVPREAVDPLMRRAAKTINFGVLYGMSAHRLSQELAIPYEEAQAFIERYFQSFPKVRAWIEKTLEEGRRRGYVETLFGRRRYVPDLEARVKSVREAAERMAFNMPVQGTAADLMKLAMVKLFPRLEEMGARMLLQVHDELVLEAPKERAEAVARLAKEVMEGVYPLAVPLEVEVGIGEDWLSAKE
Procedure: The measured polymerase activity, then, is in fact a function of two variables—temperature and additive concentration. The plot of measured activity versus temperature and additive concentration is a two-dimensional surface. While a truly comprehensive search for maximal polymerase activity would entail screening this entire surface, the number of experiments required to do so would of course be impractical. Therefore, polymerase activity was measured first as a function of temperature in the absence of additives and at one given, high additive concentration. The temperature that yielded the maximum activity of the polymerase at that concentration was then targeted for concentration gradient studies.
First, polymerase activity assays were carried out in the absence of additives and in the presence of 1.0M 1,5-pentanediol and 0.7M 1,6-hexanediol at temperatures between 46 and 62° C. Next, polymerase activity was studied at 53° C. in the presence of concentration gradients of 1,5-pentanediol, 2-pyrrolidone, sulfolane and tetramethylene sulfoxide. The concentrations tested were: 1,5-pentanediol: 1.0, 1.3, 1.5, 2.25, 3.0 and 3.5M; 2-pyrrolidone: 1.25, 1.5, 2.0 and 3.9M; sulfolane: 1.0, 1.5, 2.0 and 2.75M, tetramethylene sulfoxide: 1.0, 1.5, 2.0 and 3.0M.

50% GC DNA = assay: Predicted cosolvent-induced Tm depression of DNA; type: physicochemical; settings: 1.0M 1,5-pentanediol, 0.7M 1,6-hexanediol, linearity not verified
Procedure: The compounds utilized in the first phase (testing using 1.0M 1,5-pentanediol and 0.7M 1,6-hexanediol at temperatures between 46 and 62° C.) were chosen on the basis of the following rationale. The optimal additive for a low temperature PCR reaction is one that lowers the melting temperature of DNA as much as possible while minimally compromising polymerase activity. 1,5-Pentanediol and 1,6-hexanediol are both powerful DNA melting agents. In addition, it was found in the 62° C. activity studies that the rate of activity decline with concentration of 1,5-pentanediol was roughly equivalent to that of 1,2-butanediol, despite the fact that the former is a much stronger DNA denaturant. 1.0M 1,5-pentanediol and 0.7M 1,6-hexanediol are predicted to lower the Tm of a 50% GC DNA by approximately the same amount: 19° C.

[1] = system: bovine brain glycolipid transfer protein (GTP) cDNA (660 bp); assay: PCR amplification of GTP cDNA with diol additives, standard cycling; type: biochemical; settings: GTP; for Potency: 95° C. denaturing, 72° C. extension, normalized maximum densitometric volume of target band: 1,5-Pentanediol = 1; for Effective range: concentration interval over which densitometric volume of target band is at least 50% of maximum volume
Procedure: (§1) Amplification reactions were carried out under the following general conditions. Those skilled in the art will appreciate, however, that to the extent that the conditions (set forth in this application) required for specific experiments described in this example were inconsistent with the following general conditions, limited exceptions to the following general conditions were made The general conditions were as follows: 10 Mm Tris-HCl (Ph 8.8), 50 Mm KCl, 1.5 Mm MgCl2, 0.01% (w/v) gelatin, 0.2 Um primers, 0.06 ng/ul template, 0.2 Mm each Dntp, 0.04 U/ul Taq polymerase. The templates used were bovine brain N-WASP cDNA (1518 bp), a 996 bp segment of human myeloid leukocyte c-jun cDNA, a 511 bp segment of human prostate-specific membrane antigen (PSM) cDNA, and bovine brain glycolipid transfer protein (GTP) cDNA (660 bp). cDNA synthesis was carried out using the FIRST-STRAND® RT-PCR kit from Stratagene on the respective mRNAs purchased from Clontech. All amplification reactions for gene were carried out using a single master batch of cDNA. Taq polymerase and dNTPs were obtained from Stratagene. Primers were obtained from Genosys. Primer melting temperatures (Tms) were calculated using the Genosys oligo calculator program. The sequences of the primers were as follows.
(§2) Polymerase chain reactions for the N-WASP gene were conducted on a ROBOCYCLER® Gradient 40 thermal cycler from Stratagene using 100 ul solutions in 600 ul thin-walled tubes. For expediency, amplification of c-jun, PSM and GTP was carried out in a ROBOCYCLER® Gradient 96 thermal cycler from Stratagene using 50 ul solutions in 200 ul thin-walled tubes. Prior to Taq polymerase addition, a hotstart protocol was carried out that consisted of an initial cycle of 95° C. for 5 minutes (11) to ensure complete first-strand separation, followed by a cycle of 54° C. for 5 minutes. Amplifications were run for 30 cycles. […] Extension was done at 72° C. for periods depending on target length: 2 minutes for N-WASP, 1.5 minutes for c-jun and GTP, and 1 minute for PSM. Annealings were carried out either at fixed concentrations of additives using temperature gradients of 38-56° C. for N-WASP and 44-58° C. for the other targets, or at varying concentrations of additives using fixed temperatures of 41° C. for N-WASP, 50° C. for c-jun and PSM, and 54° C. for GTP.
(§3) Amplification products were analyzed by agarose gel electrophoresis on 0.8% agarose gels in which 20 ul reaction products were loaded with 4 ul loading buffer. Gels were stained with ethidium bromide, visualized on a UV transilluminator (Fisher), and documented by photography. Densitometric quantitation of amplification products was carried out using IMAGE SCANNER® and IMAGE MASTER® software from Amersham Pharmacia. Background correction was done using the software's rolling disc method.
Investigations into the PCR enhancing capabilities of diol cosolvents were carried out using GTP as the primary template. […] The standard protocol for annealing temperature and concentration gradient screening was again followed. […] These cosolvents were thus omitted from further studies. The optimal annealing temperatures for the remaining compounds were: ethylene glycol, 1,2-propanediol, 1,3-propanediol and cis-1,2-cyclopentanediol—58° C.; 1,2-butanediol—54° C.; 1,3-butanediol and 1,4-butanediol—[…]; 2,4-pentanediol, 1,5-pentanediol, 1,6-hexanediol and MPD—56° C.

[2] = system: 996 bp segment of human myeloid leukocyte c-jun cDNA; assay: PCR amplification of c-jun cDNA with diol additives, standard cycling; type: biochemical; settings: c-jun
Procedure: as §1, §2, §3
(§4) With PSM, 1,2-propanediol, 1,2-butanediol, 1,3-butanediol, 1,4-butanediol and glycerol were tested; with c-jun, ethylene glycol and 1,3-propanediol were also tested in addition to these compounds. […] The following additive concentrations were tested using these annealing temperatures: 1,2-propanediol—0.5, 0.8, 1.1, 1.4, 1.7 and 2.0M; 1,2-butanediol—0.1, 0.3, 0.5, 0.6, 0.7 and 0.8M; 1,3-butanediol—0.1, 0.3, 0.5, 0.6, 0.9, 1.1, 1.2M; 1,4-butanediol—0.1 to 1.1M in 0.2M intervals; 1,5-pentanediol—0.1-0.6M in 0.1M intervals; glycerol—0.5 to 1.9M in 0.2M intervals, and 2.2M.

[3] = system: 511 bp segment of human prostate-specific membrane antigen (PSM) cDNA; assay: PCR amplification of PSM cDNA with diol additives, standard cycling; type: biochemical; settings: PSM
Procedure: as §1, §2, §3, §4

[4] = system: GC-rich segment of crab satellite DNA; settings: literature (Varadaraj and Skinner, 1994); cited from earlier work
[5] = when functional; general statement on prior use; cited from earlier work

OCCCCCCO [1,6-Hexanediol]
Activity of Taq polymerase (Taq polymerase; 47° C.): 0.24
Activation (Taq polymerase; 47° C.): −27%
Activity of Taq polymerase (Taq polymerase; 48° C.): 0.36
Activation (Taq polymerase; 48° C.): −12%
Activity of Taq polymerase (Taq polymerase; 49° C.): 0.57
Activation (Taq polymerase; 49° C.): +16%
Activity of Taq polymerase (Taq polymerase; 50° C.): 0.60
Activation (Taq polymerase; 50° C.): +20%
Activity of Taq polymerase (Taq polymerase; 51° C.): 0.60
Activation (Taq polymerase; 51° C.): +13%
Activity of Taq polymerase (Taq polymerase; 52° C.): 0.64
Activation (Taq polymerase; 52° C.): +25%
Activity of Taq polymerase (Taq polymerase; 53° C.): 0.64
Activation (Taq polymerase; 53° C.): +12%
Activity of Taq polymerase (Taq polymerase; 54° C.): 0.60
Activation (Taq polymerase; 54° C.): −2%
Activity of Taq polymerase (Taq polymerase; 55° C.): 0.51
Activation (Taq polymerase; 55° C.): −27%
lowering of the Tm of a 50% GC DNA (50% GC DNA): ~19 °C
Potency [1]: 0.80
Effective range [1]: 0.13 to 0.29 M

OCC(O)CO [Glycerol, reference compound]
Effective range ([2]; concentration interval over which densitometric volume of target band is at least 50% of maximum volume): 0.50 to 1.25 M
Potency ([2]; normalized maximum densitometric volume of target band: 1,5-Pentanediol = 1): 0.13
Specificity ([3]; best specificity (densitometric volume of target as percent of total volume) over the effective range): 83%
Effective range ([3]; concentration interval over which densitometric volume of target is at least 50% of maximum): 1.10 to 1.63 M
Potency ([3]; normalized maximum densitometric volume of target band: 1,3-Butanediol = 1): 0.22
enhancement of crab satellite DNA amplification relative to that provided by DMSO [4]: less than 25%
Potency [1]: 0.28
Effective range [1]: 0.26 to 1.17 M
concentrations at which a positive effect on PCR is usually found [5]: 5-15%
